Measurements as given in patent US6861544B1, “Fluorous tin compounds an methods of using fluorous tin compounds” (University of Pittsburgh, priority 2000, dated 2005).

Experiments:
[1] = Partition coefficient of fluorous tin hydrides, FC-72/CH3CN (GC); format: physicochemical; details: FC-72 (1 mL) / acetonitrile (1 mL), stirred 10 min, GC relative peak area, n-octadecane internal standard
Procedure: (§1) Measurement of the Partition Coefficient of Fluorous Tin hyrides 4a-c. Fluorous tin hydrides (2-12 mg) were stirred with FC-72 (1 mL) and benzene (1 mL) or acetonitrile (1 mL) for 10 min. After separation, n-octadecane was added to both phases as an internal standard (for FC-72 phase, the solvent was evaporated and ethyl acetate (1 mL) was added to dissolve both the tin hydride and n-ocadecane). An aliquot (10 uL) of each phase was injected to GC for three times and the relative peak area was used to calculate the following partition coefficients of tin hydrides: FC-72/CH3CN, 4a, 2.4; 4b, 14; 4c, 48; FC-72/benzene, 4a, 0.7; 4b, 2.5; 4c, 4.7.

[2] = Partition coefficient of fluorous tin hydrides, FC-72/benzene (GC); format: physicochemical; details: FC-72 (1 mL) / benzene (1 mL), stirred 10 min, GC relative peak area, n-octadecane internal standard
Procedure: as §1

[3] = conditions of the reduction of FIG. 4

Row | SMILES | partition coefficient FC-72/CH3CN [1] | partition coefficient FC-72/benzene [2] | solubility in t-butanol [3]
1 | [CH3][SnH]([CH3])[CH2]CC(F)(F)C(F)(F)C(F)(F)C(F)(F)C(F)(F)C(F)(F)F [4a, Dimethyl-(3,3,4,4,5,5,6,6,7,7,8,8,8-tridecafluorooctyl)stannane] | 2.4 | 0.7 | –
2 | [CH3][SnH]([CH3])[CH2]CC(F)(F)C(F)(F)C(F)(F)C(F)(F)C(F)(F)C(F)(F)C(F)(F)C(F)(F)F [4b, Dimethyl-(3,3,4,4,5,5,6,6,7,7,8,8,9,9,10,10,10-heptadecafluorodecyl)stannane] | 14 | 2.5 | –
3 | [CH3][SnH]([CH3])[CH2]CC(F)(F)C(F)(F)C(F)(F)C(F)(F)C(F)(F)C(F)(F)C(F)(F)C(F)(F)C(F)(F)C(F)(F)F [4c, Dimethyl-(3,3,4,4,5,5,6,6,7,7,8,8,9,9,10,10,11,11,12,12,12-heneicosafluorododecyl)stannane] | 48 | 4.7 | –
4 | FC(F)(F)C(F)(F)C(F)(F)C(F)(F)C(F)(F)C(F)(F)C[CH2][SnH]([CH2]CC(F)(F)C(F)(F)C(F)(F)C(F)(F)C(F)(F)C(F)(F)F)[CH2]CC(F)(F)C(F)(F)C(F)(F)C(F)(F)C(F)(F)C(F)(F)F [(C6F13CH2CH2)3SnH] | – | – | insoluble or nearly insoluble
